Data set [1] relates to juvenile S. japonicum in mice. The data set can be described thus: Treatment of infected mice at juvenile worm stage. It is filed as in vivo, Schistosoma japonicum (ICR mice). Conditions: 10 mg/kg i.p. daily for 5 days from day 7 post-infection. On the procedure:
The abdominal skin of each mouse (ICR, female, 22–24 g) was exposed to 20 S. japonica cercariae (as described above). The mice were intraperitoneally injected with 10 mg/kg oxadiazole-2-oxides daily for 5 days, beginning either 7 or 35 days post-infection. Control mice were treated with 10 mg/kg of the carrier medium. All mice were sacrificed 42 days post-infection. The worm burden of each mouse was confirmed by counting the number of worms observed from a portal vein perfusion. The mouse livers were digested overnight with 5 % potassium hydroxyl solution at 37 °C and the eggs in the liver tissue were counted under an inverted phase contrast microscope. The worm and egg reduction rates were calculated using the following formulas: Wormreductionrate%=meannumberofadultwormspermouseincontrolgroup−meannumberofadultwormspermouseinexperimentalgroup/meannumberofadultwormspermouseincontrolgroup. Eggreductionrate%=meannumberofeggspermouseincontrolgroup−meannumberofeggspermouseinexperimentalgroup/meannumberofeggspermouseincontrolgroup.

The target in data set [2] is T1, recombinant SjTGR (Schistosoma japonicum, UniProt B5THG7).
T1 sequence (B5THG7 1-596): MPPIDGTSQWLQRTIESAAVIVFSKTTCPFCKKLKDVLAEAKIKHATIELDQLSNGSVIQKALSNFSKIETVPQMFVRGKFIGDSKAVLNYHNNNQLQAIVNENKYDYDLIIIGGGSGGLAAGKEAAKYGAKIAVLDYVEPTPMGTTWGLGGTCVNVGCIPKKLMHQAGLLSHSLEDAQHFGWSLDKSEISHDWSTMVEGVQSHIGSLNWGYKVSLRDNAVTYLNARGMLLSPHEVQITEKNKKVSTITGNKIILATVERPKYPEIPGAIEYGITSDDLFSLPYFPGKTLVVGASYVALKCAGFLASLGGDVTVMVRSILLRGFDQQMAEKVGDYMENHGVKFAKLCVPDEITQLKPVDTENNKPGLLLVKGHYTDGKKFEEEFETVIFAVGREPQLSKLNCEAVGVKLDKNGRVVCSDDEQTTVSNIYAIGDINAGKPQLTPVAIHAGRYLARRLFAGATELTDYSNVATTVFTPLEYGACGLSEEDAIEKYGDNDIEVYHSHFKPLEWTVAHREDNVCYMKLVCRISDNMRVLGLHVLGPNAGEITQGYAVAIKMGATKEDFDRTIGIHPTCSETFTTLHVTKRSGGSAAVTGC
Nature of the data set: Inhibition of TrxR activity of recombinant SjTGR (DTNB assay). It is filed as biochemical. Conditions: 50 nM SjTGR, 1 mM NADPH, 15 min preincubation, DTNB reduction. On the procedure:
The purified recombinant SjTGR proteins were produced according to the method described by Song et al.. The inhibition of TrxR activity by the recombinant SjTGR was performed as reported by Rai et al.. Briefly, 50 nM SjTGR and 1 mM NADPH were incubated with different concentrations of oxadiazole-2-oxides (2, 4, 6, 10, 20 μM) for 15 min at room temperature. Then, potassium phosphate buffer (pH 7.4) containing 10 mM EDTA, 100 μM NADPH, and 3 mM DTNB was added to start the reaction. The increase of absorbance at 412 nm was monitored during the first 2 min. All assays were done in triplicate.
50 nM SjTGR and 1 mM NADPH were incubated with different concentrations of oxadiazole-2-oxides (2, 4, 6, 10, 20 μM) for 15 min at room temperature. Then, potassium phosphate buffer (pH 7.4) containing 10 mM EDTA, 100 μM NADPH, 3 mM DTNB was added to start the reaction. The increase in absorbance at 412 nm was monitored during the first 2 min. All assays were done in triplicate. Results shown are the mean ± SD (n = 3)

Data set [3] has as its system juvenile S. japonicum. Nature of the data set: microbe, parasite or virus in culture. It is filed as cell-based. Conditions: juvenile worms; for Killing activity 24hr / Killing activity 48hr / Killing activity 72hr: 10 μM. The procedure: Infected Oncomelania hupensis, provided by the Department of Snail Biology, Jiangsu Institute of Parasitic Diseases, were incubated at 25–28 °C, under illumination, for 2 h to hatch S. japonicum cercariae. The cercariae were collected from the water surface with clean cover glass and placed into a centrifuge tube using pre cooled RPMI 1640. Centrifugation was performed for 1 min at 1500 rpm, and then the steps above were repeated. After centrifugation, the supernatant solution was removed. The cercariae at the bottom were washed twice and resuspended with RPMI 1640. Approximately 20–30 cercariae (1 mL of the resuspension medium) were added to one well in a 24-well culture plate. They were incubated overnight at 37 °C with 5 % CO2. The survival rates and number of tails shed were observed under an inverted microscope. Cercariae that had shed their tails were used as juvenile S. japonicum.
20–30 juvenile worms were transferred into each well of a 24-well culture plate, containing 2 mL RPMI 1640 medium, 20 mM HEPES, 100 IU/mL penicillin, […] streptomycin and 10 % fetal bovine serum. Then, oxadiazole-2-oxides (2, 5, 10, and 50 μM), diluted with the RPMI 1640 medium, were added to their allocated wells. The worms in the negative control wells were treated with equal volumes of RPMI 1640 or DMSO and worms treated with AS were observed as positive controls. The juvenile worms’ survival rates were observed under an inverted phase contrast microscope (Leica, Wetzlar, Germany) at 24, 48 and 72 h. Parasite death was defined as an unclear internal structure of the juvenile worms, with incomplete tegument and contents overflowing radially, or unclear internal structure with complete tegument, but having no motor activity during 1 min of continuous observation. All assays were repeated three times.
^b Data collected by visual examination of worm movement and shape; % D = The number of worms dead / The total number of worms observed, and worms dead judged by unclear internal structure of juvenile worms with uncompleted tegument, and contents overflowing radially, or unclear internal structure with complete tegument, but having no motor activity during 1 min of continuous observation. The data presented are the average of three independent experiments.

In data set [4] the test system is adult S. japonicum. Nature of the data set: microbe, parasite or virus in culture. It is filed as cell-based. Conditions: adult worms. An excerpt:
ICR mice (20–22 g), were obtained from the Shanghai Sub-Center of Experimental Animals, Chinese Academy of Sciences. They were maintained at the Department of Experimental Animals, Jiangsu Institute of Parasitic Diseases. To infect each mouse, its abdominal skin was exposed to 50 S. japonica cercariae. All of the mice were executed to collect S. japonica adult worms, through portal vein perfusion, 35 days post-infection. The adult S. japonica collected were washed with RPMI 1640 medium and then kept in RPMI 1640 medium (pH 7.5) with HEPES 20 mM, penicillin (100 IU/mL), streptomycin ([…]) and 10 % fetal bovine serum. Then, two pairs of adult worms were transferred into each well of a 24-well culture plate, with 2 mL of the same medium. The worms were cultured at 37 °C in a humid atmosphere with 5 % CO2.
Adult worms were cultured in a 24-well culture plate for 30–60 min at 37 °C, in a humid atmosphere with 5 % CO2. Then, oxadiazole-2-oxides at different concentrations (10, 25, 50, 100 μM) were added. Equal volumes of RPMI 1640 or DMSO were applied as negative controls, while PZQ was applied as a positive control. The adult worm mobility and parasite survival rates were monitored using an inverted phase contrast microscope, at 24, 48 and 72 h. Parasite death was defined as there being no motor activity during 2 min of continuous observation, and morphological and tegumental alterations. All assays were repeated three times.
^b Data collected by visual examination of worm movement and shape; n.e. […] The data presented are the average of three independent experiments.

[5] abbreviates: Schistosoma japonicum, 24 h, read-out: Killing activity 24hr.
[6] abbreviates: Schistosoma japonicum, 48 h, read-out: Killing activity 48hr.
Setting [7] is: Schistosoma japonicum, 72 h, read-out: Killing activity 72hr.
Setting [8] is: Schistosoma japonicum, 50 μM, 24 h, read-out: Killing activity 24hr.
[9] abbreviates: Schistosoma japonicum, 50 μM, 48 h, read-out: Killing activity 48hr.
Where [10] appears, read: Schistosoma japonicum, 50 μM, 72 h, read-out: Killing activity 72hr.
The mark [11] stands for this setting: Schistosoma japonicum, 100 μM, 72 h, read-out: Killing activity 72hr.

Like-named read-outs stand apart in the source and are kept apart here. Bounds are passed on as bounds.

Broadly, the IC50 is the concentration at which inhibition is half-maximal. In general, mortality refers to the percentage killed.

`C[C@@H]1CC[C@H]2[C@@H](C)C(=O)O[C@@H]3O[C@@]4(C)CC[C@@H]1[C@]32OO4` [AS, artemisinin, reference compound]: the “Number of eggs per gram of liver (Mean ± SD)” value in data set [1] (sacrificed day 42) is 2,932.2 ± 1,149.3. Further, the “Number of worms (Mean ± SD)” value in data set [1] (sacrificed day 42) is listed as 2.3 ± 1.0. Also, the Egg reduction rate in data set [1] (versus control) was 63.5 (P < 0.01^*) %. The Worm reduction rate in data set [1] (versus control, 10 mg/kg) is listed as 78.5 (P < 0.01^*) %. In data set [2] (IC50 of SjTGR), the IC50 was above 20 µM. The results for the killing at 2 µM in data set [3] (setting [5]), in data set [3] (setting [6]) and in data set [3] (setting [7]) were 16.2%, 24.3% and 32.4%, respectively. For the same compound, the killing at 5 µM is 34.1% in data set [3] (setting [5]), 36.4% in data set [3] (setting [6]) and 40.9% in data set [3] (setting [7]). Moreover, the killing at 50 µM stood at 51.3% in data set [3] (setting [8]), 66.7% in data set [3] (setting [9]) and 76.9% in data set [3] (setting [10]). In data set [3] (Schistosoma japonicum, 50 μM, 24 h, read-out: Mortality of juvenile worms), the mortality at 50 µM was 51.3 ± 5.1%. Besides, the “Killing activity 24hr” value in data set [3] (24 h) was determined as 47.6%D. Besides, the “Killing activity 48hr” value in data set [3] (48 h) is on record as 66.7%D. In data set [3] (72 h), the “Killing activity 72hr” value came to 71.4%D.
On to `N#Cc1c(-c2ccc(COc3ccc4ccccc4c3C=O)cc2)no[n+]1[O-]` [Compound 27], for which, in data set [2], the “IC50 of SjTGR” value is “did not inhibit”. Further, the IC50 in data set [2] (read-out: IC50 of SjTGR) was above 20 µM. In addition, the killing at 2 µM in data set [3] (setting [5]) was found to be 9.1%; in data set [3] (setting [6]), 9.1%; in data set [3] (setting [7]) it was 10.6%. Further, the figures for the killing at 5 µM in data set [3] (setting [5]), in data set [3] (setting [6]) and in data set [3] (setting [7]) were 14.9%, 25.7% and 27%, respectively. The killing at 50 µM in data set [3] (setting [8]) was 40%; in data set [3] (setting [9]), 44.4%; in data set [3] (setting [10]), 46.7%; in data set [4] (setting [10]) it was 87.5%. Moreover, the “Killing activity 24hr” value is 15.6%D in data set [3] (24 h); “n.e” in data set [4] (10 μM, 24 h); “sluggish” in data set [4] (25 μM, 24 h); “sluggish” in data set [4] (50 μM, 24 h). Further, the “Killing activity 48hr” value is 24.4%D in data set [3] (48 h); “n.e” in data set [4] (10 μM, 48 h); “sluggish” in data set [4] (25 μM, 48 h); “sluggish” in data set [4] (50 μM, 48 h). The “Killing activity 72hr” value in data set [3] (72 h) came out at 30.0%D; in data set [4] (10 μM, 72 h), 62.5%D. In data set [4] (Schistosoma japonicum, 25 μM, 72 h, read-out: Killing activity 72hr), the killing at 25 µM came to 75%. Also, the killing at 100 µM in data set [4] (Schistosoma japonicum, 100 μM, 24 h, read-out: Killing activity 24hr) is 22.2%; in data set [4] (Schistosoma japonicum, 100 μM, 48 h, read-out: Killing activity 48hr), 33.3%; in data set [4] (setting [11]) it was 77.8%.
Regarding `N#Cc1c(-c2ccc(COc3cc(=O)oc4ccccc34)cc2)no[n+]1[O-]` [Compound 29], in data set [2], the “IC50 of SjTGR” value was “did not inhibit”. Further, in data set [2] (read-out: IC50 of SjTGR), the IC50 was above 20 µM. For the same compound, the killing at 2 µM in data set [3] (setting [5]), in data set [3] (setting [6]) and in data set [3] (setting [7]) was 30% in each case. The killing at 5 µM in data set [3] (setting [5]) is 30%; in data set [3] (setting [6]) it was 32.5%; in data set [3] (setting [7]), 40%. Moreover, the killing at 50 µM in data set [3] (setting [8]) was determined as 42.3%; in data set [3] (setting [9]) it was 51.9%; in data set [3] (setting [10]), 75%; in data set [4] (setting [10]), 16.7%. Further, the “Killing activity 24hr” value in data set [3] (24 h) is 30.2%D; in data set [4] (10 μM, 24 h) it was “n.e”; in data set [4] (25 μM, 24 h) it was “n.e”; in data set [4] (50 μM, 24 h), “n.e”; in data set [4] (100 μM, 24 h), “n.e”. Besides, the “Killing activity 48hr” value in data set [3] (48 h) was 31.7%D; in data set [4] (10 μM, 48 h), “n.e”; in data set [4] (25 μM, 48 h), “n.e”; in data set [4] (50 μM, 48 h), “sluggish”; in data set [4] (100 μM, 48 h), “sluggish”. In addition, the “Killing activity 72hr” value in data set [3] (72 h) is 65.1%D; in data set [4] (10 μM, 72 h) it was “n.e”; in data set [4] (25 μM, 72 h), “sluggish”. For the same compound, the killing at 100 µM in data set [4] (setting [11]) amounted to 66.7%. Besides, the “Mortality of adult worms” value in data set [4] (100 μM, 24 h) is recorded as “did not cause death”.

Source of the values: article PMC4721062, “Oxadiazole-2-oxides may have other functional targets, in addition to SjTGR, through which they cause mortality in Schistosoma japonicum” (Parasites & Vectors, 2016).
